Results published in patent US9321737B2, “CDK8-CDK19 selective inhibitors and their use in anti-metastatic and chemopreventative methods for cancer” (SENEX BIOTECHNOLOGY INC, priority 2012, dated 2016).

Key:
MAP4K2 = target: T1, MAP4K2 (Homo sapiens, UniProt Q12851); experiment: KinomeScan ATP pocket binding inhibition, MAP4K2; conditions: 2,000 nM
T1 construct: purchased KinomeScan, a division of Ambit Biosciences
T1 sequence (Q12851 1-820): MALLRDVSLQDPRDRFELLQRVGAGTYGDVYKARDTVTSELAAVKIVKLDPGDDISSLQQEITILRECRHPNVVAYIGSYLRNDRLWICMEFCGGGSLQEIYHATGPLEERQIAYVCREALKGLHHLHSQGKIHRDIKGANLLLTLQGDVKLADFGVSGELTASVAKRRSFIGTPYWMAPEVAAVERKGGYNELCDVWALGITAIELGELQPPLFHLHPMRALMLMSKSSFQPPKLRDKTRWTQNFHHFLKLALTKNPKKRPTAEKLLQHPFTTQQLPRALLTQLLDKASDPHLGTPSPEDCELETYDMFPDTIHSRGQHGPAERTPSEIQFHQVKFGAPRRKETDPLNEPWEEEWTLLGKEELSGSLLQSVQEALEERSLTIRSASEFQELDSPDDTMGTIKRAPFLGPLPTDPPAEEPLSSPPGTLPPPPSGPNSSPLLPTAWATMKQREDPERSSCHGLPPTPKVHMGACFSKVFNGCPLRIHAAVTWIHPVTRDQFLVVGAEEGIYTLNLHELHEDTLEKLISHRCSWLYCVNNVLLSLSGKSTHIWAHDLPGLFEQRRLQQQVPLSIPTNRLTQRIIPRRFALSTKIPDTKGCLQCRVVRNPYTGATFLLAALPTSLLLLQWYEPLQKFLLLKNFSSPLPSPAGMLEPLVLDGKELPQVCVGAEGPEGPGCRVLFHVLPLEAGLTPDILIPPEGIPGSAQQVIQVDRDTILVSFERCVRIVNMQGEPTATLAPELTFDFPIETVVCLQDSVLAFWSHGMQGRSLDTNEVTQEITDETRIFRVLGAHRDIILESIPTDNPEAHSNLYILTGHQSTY
Description: (§1) (16) The results of this analysis are presented in FIGS. 6A-B in the form of an evolutionary dendrogram of the kinase family, where kinase inhibition is represented by red circles, the size of which represents the magnitude of the inhibition.

[1] = test system: β-catenin-dependent TOPFLASH promoter in HCT116 colon carcinoma cells; experiment: β-catenin-dependent TOPFLASH luciferase assay; type: cell-based; conditions: different concentrations
Protocol: The effect of different concentrations of Senexin B on luciferase expression from β-catenin-dependent TOPFLASH promoter in HCT116 colon carcinoma cells was measured as described in US Patent Publication 20120071477 for Senexin A (SNX2-1-53).

MDA-MB-231 = MDA-MB-231 orthotopic TNBC xenograft; type: in vivo, female SCID mice; conditions: 40 mg/kg, 5 daily doses, three rounds
Protocol: Once tumors were formed, mice were randomized into 4 cohorts (n=10) and treated, at 7-10 day intervals, with three rounds of: vehicle (5 daily doses), 1 mg/kg doxorubicin (single dose), 40 mg/kg Senexin B (5 daily doses) or doxorubicin (single dose)+Senexin B (5 daily doses).

CDK8 [2] = target: T2, CDK8 (Homo sapiens, UniProt P49336); experiment: KinomeScan ATP pocket binding inhibition, CDK8; conditions: 2,000 nM
Description: as §1

>450 kinases = experiment: KinomeScan ATP pocket binding inhibition, rest of panel; conditions: 2,000 nM
Description: as §1

MDA-MB-157 = experiment: Breast carcinoma cell growth, MTT, MDA-MB-157; type: cell-based; conditions: five days
[3] = Pharmacokinetics in mouse plasma (gavage); type: in vivo; conditions: mice, gavage 100 mg/kg
[4] = Solubility in 20% propylene glycol; type: physicochemical
Protocol: The compounds were also tested for solubility in 20% propylene glycol and in water, as follows. Compounds (dry powder) were dissolved in 20% propylene glycol at a concentration of 1 mM at a temperature of 40° C. with occasional vortexing. After 30 min, the solution was centrifuged at 10,000×g for 5 min. Serial dilutions of the cleared supernatant were prepared and used to measure the compound concentrations through OD reading, relative to 1 μM standard solution of the same compound. The results of the measurement were expressed as % solubility of the compound at 1 mM in 20% propylene glycol. To determine water solubility, the compounds (dry powder) were initially dissolved in water at a concentration of 100 mM at a temperature of 40° C. with occasional vortexing. After 30 min, the solution was centrifuged at 10,000×g for 5 min, and the formation of an insoluble pellet was monitored. At subsequent steps, the compound was attempted to be dissolved at lower concentrations, until no pellet was observed after centrifugation, indicating complete solution of the compound.

4T1 = experiment: Breast carcinoma cell growth, MTT, 4T1; type: cell-based; conditions: five days
MDA-MB-468 = MDA-MB-468 TNBC xenograft model; type: in vivo, female nude mice; conditions: 40 mg/kg Senexin B daily i.p.; 4 mg/kg doxorubicin two injections two weeks apart
Protocol: Female nude mice were inoculated with MDA-MB-468 cells, and once palpable tumors were formed, mice were randomized into 4 groups, treated daily i.p. with vehicle alone (n=12), 40 mg/kg Senexin B, two injections with 4 mg/kg doxorubicin two weeks apart, or doxorubicin combined with Senexin B (n=8 in each of the latter groups).

[5] = test system: CDKI pathway (CMV promoter stimulation by p21) in HT1080 fibrosarcoma cells; experiment: CDKI pathway inhibition cellular assay (CMV-GFP induction by IPTG-inducible p21); type: cell-based, human; conditions: for activity in cell-based CDKI pathway assay: CMV-GFP
Protocol: The compounds described below are shown in Table 1 and the structures of some novel compounds according to the invention are shown in FIG. 1. […] All the compounds were tested for the ability to inhibit the CDKI pathway in a cellular assay described in our previous patent application PCT/US06/01046. This assay is based on the induction of green fluorescent protein (GFP) expression from the cytomegalovirus (CMV) promoter in human HT1080 fibrosarcoma cells that express CDKI p21 from an isopropyl-β-thio-galactoside (IPTG)-inducible promoter. The compound activity as a CDKI pathway inhibitor is measured by its ability to prevent the stimulation of the CMV promoter upon the addition of p21-inducing IPTG. CMV promoter activity is measured by the ratio of GFP fluorescence to the relative cell number, as determined by staining cellular DNA with Hoechst 33342.

CDK8 [6] = target: T2, CDK8; experiment: Kd determination, CDK8; type: binding; conditions: in duplicate
Description: as §1

T2 sequence (P49336 whole entry): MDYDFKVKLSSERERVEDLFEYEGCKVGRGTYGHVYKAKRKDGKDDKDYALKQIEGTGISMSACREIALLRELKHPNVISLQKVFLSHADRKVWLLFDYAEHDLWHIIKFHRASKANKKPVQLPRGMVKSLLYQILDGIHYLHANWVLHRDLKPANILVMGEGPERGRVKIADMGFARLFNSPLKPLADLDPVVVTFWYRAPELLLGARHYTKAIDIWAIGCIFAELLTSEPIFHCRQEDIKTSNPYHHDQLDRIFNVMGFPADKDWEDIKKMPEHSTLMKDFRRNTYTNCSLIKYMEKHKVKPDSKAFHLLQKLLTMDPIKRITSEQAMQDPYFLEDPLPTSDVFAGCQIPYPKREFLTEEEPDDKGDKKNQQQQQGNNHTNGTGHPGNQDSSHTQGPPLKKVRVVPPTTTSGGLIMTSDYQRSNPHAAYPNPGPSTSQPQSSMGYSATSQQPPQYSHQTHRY

CN1CCN(C(=O)c2ccc3cc(CCNc4ncnc5ccc(C#N)cc45)ccc3c2)CC1 [SNX2-1-165]
% inhibition of MAP4K2 (MAP4K2): 69% | luciferase expression from TOPFLASH promoter (β-catenin activity) [1]: concentration-dependent inhibition | body weight difference from control (MDA-MB-231): no significant weight difference from the control | % inhibition of CDK8 (CDK8 [2]): 97.8% | % inhibition of all other kinases in the panel (>450 kinases): ≤ 50% | growth inhibition, MDA-MB-157 (MDA-MB-157): dose-dependent growth inhibition | oral availability [3]: orally available | peak plasma concentrations [3]: ~50 µM | % solubility at 1 mM in 20% propylene glycol ([4]; 1 mM, 40° C., 30 min, centrifuged, OD reading): 100% | solubility in 20% propylene glycol ([4]; at 1 mM): fully soluble | growth inhibition, 4T1 (4T1): not inhibited except for the highest concentrations | tumor growth (tumor volumes after 30 days of treatment) (MDA-MB-468): significantly slowed down the tumor growth | activity in cell-based CDKI pathway assay ([5]; IPTG-inducible p21): more active than any of the previously developed SNX2-class compounds | activity in cell-based CDKI pathway assay ([5]; IPTG-inducible p21, listed as Senexin B): potently inhibited | EC50 ([5]; IPTG-induced p21, CMV-GFP / Hoechst 33342, read-out: Cell-based Assay EC50): 530 nM | Kd (CDK8 [6]): 140 nM
